The kinase profiling compilation of Christmann-Franck et al. (2016)

How the values were obtained:
Test in all cases: radiometric filter-binding kinase assay, Kinaseprofiler
[1] = molecular target: NTRK2 (human) (UniProt Q16620); conditions: ATP 90 µM
[2] = molecular target: EPHA4 (human) (UniProt P54764); conditions: ATP 15 µM
[3] = molecular target: RPS6KA6 KD1 KD2 (human) (UniProt Q9UK32); conditions: ATP 45 µM
[4] = molecular target: CAMK4 (human) (UniProt Q16566); conditions: ATP 10 µM
Chain of CAMK4 (human) (Q16566 whole entry, looked up): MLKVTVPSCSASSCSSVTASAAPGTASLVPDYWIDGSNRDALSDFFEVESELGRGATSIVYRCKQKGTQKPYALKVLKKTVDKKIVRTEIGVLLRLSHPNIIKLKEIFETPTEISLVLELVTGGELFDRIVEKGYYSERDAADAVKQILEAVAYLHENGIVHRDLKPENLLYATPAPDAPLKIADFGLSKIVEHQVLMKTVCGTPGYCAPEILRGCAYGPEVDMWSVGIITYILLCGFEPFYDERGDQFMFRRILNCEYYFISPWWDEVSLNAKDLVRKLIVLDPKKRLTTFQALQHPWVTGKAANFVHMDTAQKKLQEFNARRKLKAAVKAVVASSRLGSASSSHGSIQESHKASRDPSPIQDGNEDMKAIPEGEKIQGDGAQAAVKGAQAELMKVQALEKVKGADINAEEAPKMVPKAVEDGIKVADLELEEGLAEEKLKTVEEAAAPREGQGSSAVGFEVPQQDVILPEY

Chain of RPS6KA6 KD1 KD2 (human) (Q9UK32 whole entry, looked up): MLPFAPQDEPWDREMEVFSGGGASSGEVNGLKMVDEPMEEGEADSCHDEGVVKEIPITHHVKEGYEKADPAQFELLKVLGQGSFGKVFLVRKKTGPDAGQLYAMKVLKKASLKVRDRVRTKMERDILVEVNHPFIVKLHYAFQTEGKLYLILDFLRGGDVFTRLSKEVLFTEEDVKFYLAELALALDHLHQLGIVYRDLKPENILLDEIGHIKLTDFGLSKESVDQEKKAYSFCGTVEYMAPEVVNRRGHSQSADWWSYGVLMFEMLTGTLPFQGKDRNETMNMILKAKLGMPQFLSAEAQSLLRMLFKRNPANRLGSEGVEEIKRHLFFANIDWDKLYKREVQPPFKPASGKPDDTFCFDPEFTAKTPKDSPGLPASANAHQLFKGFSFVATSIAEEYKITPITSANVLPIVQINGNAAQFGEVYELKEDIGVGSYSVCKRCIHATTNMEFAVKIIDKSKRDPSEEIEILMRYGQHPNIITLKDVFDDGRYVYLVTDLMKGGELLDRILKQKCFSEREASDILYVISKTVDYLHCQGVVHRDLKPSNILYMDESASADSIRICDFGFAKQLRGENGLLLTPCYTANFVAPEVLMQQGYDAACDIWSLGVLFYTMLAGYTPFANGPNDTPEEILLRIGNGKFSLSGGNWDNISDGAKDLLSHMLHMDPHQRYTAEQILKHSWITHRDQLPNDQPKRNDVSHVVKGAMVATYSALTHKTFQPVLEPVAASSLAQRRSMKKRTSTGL
Chain of EPHA4 (human) (P54764 whole entry, looked up): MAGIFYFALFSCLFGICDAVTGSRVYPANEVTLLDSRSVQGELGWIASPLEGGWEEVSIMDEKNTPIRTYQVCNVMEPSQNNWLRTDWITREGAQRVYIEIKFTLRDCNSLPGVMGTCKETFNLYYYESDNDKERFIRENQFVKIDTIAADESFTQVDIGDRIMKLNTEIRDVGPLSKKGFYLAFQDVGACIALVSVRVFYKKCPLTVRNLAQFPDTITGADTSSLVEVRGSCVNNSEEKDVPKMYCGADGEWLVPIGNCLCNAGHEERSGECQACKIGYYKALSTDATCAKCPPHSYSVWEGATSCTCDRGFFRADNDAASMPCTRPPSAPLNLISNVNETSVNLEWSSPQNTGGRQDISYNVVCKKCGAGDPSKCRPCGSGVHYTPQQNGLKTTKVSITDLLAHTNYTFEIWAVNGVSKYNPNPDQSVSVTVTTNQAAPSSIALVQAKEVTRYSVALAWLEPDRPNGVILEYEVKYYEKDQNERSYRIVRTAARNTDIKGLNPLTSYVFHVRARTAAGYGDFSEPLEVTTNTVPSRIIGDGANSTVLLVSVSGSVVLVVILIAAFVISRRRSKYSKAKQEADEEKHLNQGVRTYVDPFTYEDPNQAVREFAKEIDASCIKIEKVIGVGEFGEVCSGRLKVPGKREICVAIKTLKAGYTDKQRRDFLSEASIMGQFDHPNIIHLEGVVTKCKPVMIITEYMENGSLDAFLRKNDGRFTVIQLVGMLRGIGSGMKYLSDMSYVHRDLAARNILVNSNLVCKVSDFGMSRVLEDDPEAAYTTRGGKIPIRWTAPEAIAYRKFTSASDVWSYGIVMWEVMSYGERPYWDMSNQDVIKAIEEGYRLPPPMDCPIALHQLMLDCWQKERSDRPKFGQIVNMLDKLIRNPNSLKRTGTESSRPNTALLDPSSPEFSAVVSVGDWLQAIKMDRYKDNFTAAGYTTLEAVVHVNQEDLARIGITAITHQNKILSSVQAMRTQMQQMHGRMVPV
Chain of NTRK2 (human) (Q16620 whole entry, looked up): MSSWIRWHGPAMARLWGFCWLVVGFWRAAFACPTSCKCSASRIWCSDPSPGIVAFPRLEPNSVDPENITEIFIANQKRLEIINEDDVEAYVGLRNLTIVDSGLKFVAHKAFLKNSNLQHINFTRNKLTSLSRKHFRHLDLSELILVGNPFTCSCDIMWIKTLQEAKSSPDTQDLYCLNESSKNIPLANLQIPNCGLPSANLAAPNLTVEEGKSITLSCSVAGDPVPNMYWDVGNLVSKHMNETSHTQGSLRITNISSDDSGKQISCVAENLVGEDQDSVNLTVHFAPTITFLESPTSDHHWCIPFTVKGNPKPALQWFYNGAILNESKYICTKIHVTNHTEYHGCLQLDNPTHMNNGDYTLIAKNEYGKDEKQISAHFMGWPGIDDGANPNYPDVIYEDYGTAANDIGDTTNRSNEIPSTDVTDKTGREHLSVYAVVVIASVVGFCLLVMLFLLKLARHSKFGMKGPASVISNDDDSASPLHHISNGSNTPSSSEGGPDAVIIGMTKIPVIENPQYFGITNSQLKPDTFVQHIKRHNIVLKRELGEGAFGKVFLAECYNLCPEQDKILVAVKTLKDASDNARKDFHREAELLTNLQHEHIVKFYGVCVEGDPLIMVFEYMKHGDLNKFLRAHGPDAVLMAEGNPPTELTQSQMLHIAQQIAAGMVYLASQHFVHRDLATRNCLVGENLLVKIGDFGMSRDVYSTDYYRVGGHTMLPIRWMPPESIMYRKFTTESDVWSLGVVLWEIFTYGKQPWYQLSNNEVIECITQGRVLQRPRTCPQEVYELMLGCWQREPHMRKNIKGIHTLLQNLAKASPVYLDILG

residual activity ([1]; compound 1.0 µM): 0%
residual activity ([1]; compound 10.0 µM): 0%
residual activity ([2]; compound 1.0 µM): 96%
residual activity ([2]; compound 10.0 µM): 83%
residual activity ([3]; compound 1.0 µM): 20%
residual activity ([3]; compound 10.0 µM): 12%
residual activity ([4]; compound 1.0 µM): 66%
residual activity ([4]; compound 10.0 µM): 10%
Structure (SMILES): O=C1Nc2ccccc2/C1=C1\Nc2ccccc2\C1=N/O
